From patent US20130261142A1, “COMPOUNDS USED FOR TREATING CANCER AND THE USE THEREOF” (priority 2010, published 2013)
Entries after “also recorded” stand apart in the source; their conditions may differ. Structures can show the parent of a compound that is named as a salt.

What was measured:
[1] = system: MCF-7 SPS cells; test: LOPAC compounds tested on MCF-7 SPS cells (Table 2); details: Compounds that inhibit cancer stem cells, 3 μM stated for Niclosamide
Description: The morphology and number of the spheroids were further analyzed by software image pro plus.

[2] = system: OVCICs sps cells collected from ovarian cancer patient(s); test: Patients' OVCA specimen-derived cells (pdOVCICs / OVCICs sps), MTS assay; format: cell-based, human; details: in vitro
Description: A total of 5000 pdOVCICs were seeded onto each well in 96-well plates and each plate was treated with different concentrations of Niclosamide in duplicates for 3 days. The vitality of pdOVCICs cells was measured by MTS assay.

[3] = system: CP70 sps cells; test: Cytotoxicity / vitality of CP70 sps cells (MTS assay); details: for inhibition / cytotoxicity effect on CP70 sps (OVCA sps) cells: 3 μM, MTS assay
Description: (§1) The vitality of the treated cells was measured by MTS assay using MTS-based CellTiter 96 aqueous non-radioactive cell proliferation assay kit (Promega) according to the manufacturer's instructions.
The vitality of the CP70 sps cells was measured by MTS assay. For preclinical test, two groups with five mice each were i.p. injected with 1×10^4 of CP70 sps cells alone or followed by Niclosamide treatment (10 mg/kg/daily) from day 1 to day 47, respectively. The body weights of the two groups of mice were monitored every 3 days during day 36 to day 48. After 48 days, the mice were sacrificed to examine the tumor nodules formation in the abdominal cavity.

[4] = system: OVCA sps cells; test: LOPAC compounds tested on OVCA sps cells, MTS / ATP-based assay (Table 3); format: cell-based; details: proliferation and differentiation
Description: CP70 sps cells were seeded in a 96-well culture plate (1×10^3 cells/well) and cultured for 24 hr, and then treated with 30 μM of various compounds selected from the LOPAC database. Following 3-day treatment, the vitality of the treated cells was measured by CellTiter-Glo® Luminescent Cell Vitality Assay kit (Promega) according to the manufacturer's instructions.
as §1

[5] = system: CP70 cells; test: Cytotoxicity on CP70 (OVCA) cells
[6] = Cisplatin treatment, FIGS. 10A-10C

Molecule | Cancer cell survival (%) [1] [%] | Cancer cell survival (%) [4] [%] | also measured
CCCCCCCCCCCCCCCC(=O)OC(CC(=O)O)C[N+](C)(C)C.[Cl-] (racemic) [Palmitoyl-DL-Carnitine chloride] | 9.7 | – | –
CCn1cnc2c(Nc3cccc(Cl)c3)nc(N[C@@H]3CCCC[C@@H]3N)nc21.Cl (relative stereo) [CGP-74514A hydrochloride, N2-(cis-2-Aminocyclohexyl)-N6-(3-chlorophenyl)-9-ethyl-9H-purine-2,6-diamine hydrochloride] | 10 | – | –
O.c1cnc2c(c1)ccc1cccnc12 [1,10-Phenanthroline monohydrate] | 7 | – | –
N#Cc1c(-c2ccccc2)no[n+]1[O-] [4-Phenyl-3-furoxancarbonitrile] | 1.1 | – | –
O=Nc1ccc2oc(=O)ccc2c1 [6-Nitroso-1,2-benzopyrone] | 1.5 | – | –
CC(C)(C)[C@]1(O)CCN2Cc3cccc4c3[C@H](c3ccccc3CC4)[C@@H]2C1.Cl [(+)-Butaclamol hydrochloride] | – | 42.81 | differentiation and growth of ovarian cancer cells [2]: successfully inhibited; inhibition / cytotoxicity effect on CP70 sps (OVCA sps) cells ([3]; hydrochloride): can kill; also recorded: significant inhibition effect; inhibition / cytotoxicity effect on CP70 sps (OVCA sps) cells ([3]; listed as (+)-butaclamol hydrochloride, hydrochloride): significant inhibition effects; numbers of ovarian cancer stem cells in CP70 SPS cell culture in vitro ([3]; FIG. 14 / FIG. 15): inhibited; cytotoxicity effect on CP70 (OVCA) cells ([5]; 3 μM, hydrochloride): can kill; also recorded: toxic
CC[C@@]1(O)C(=O)OCc2c1cc1n(c2=O)Cc2cc3ccccc3nc2-1 [(S)-(+)-Camptothecin] | 8.2 | 39.11 | –
N.S=C(S)N1CCCC1 [Ammonium pyrrolidinedithiocarbamate] | 4.4 | – | –
O=C1Nc2cc(Br)ccc2/C1=C1/Nc2ccccc2/C1=N\O [BIO, (2′Z,3′E)-6-Bromoindirubin-3′-oxime] | 2.4 | – | –
CC(C)(C)c1ccc(S(=O)(=O)/C=C/C#N)cc1 [Bay 11-7085, (E)3-((4-t-Butylphenyl)sulfonyl)-2-propenenitrile] | 4 | – | –
CN1CCN(c2nc3cc(C(F)(F)F)ccc3n3cccc23)CC1.O=C(O)/C=C\C(=O)O [CGS-12066A maleate, 7-Trifluoromethyl-4-(4-methyl-1-piperazinyl)pyrrolo-[1,2-a]quinoxaline maleate salt] | 16.3 | – | –
Brc1c(Br)c(Br)c2[nH]cnc2c1Br [CK2 Inhibitor 2, 4,5,6,7-tetrabromobenzimidazole] | 8.3 | – | –
CNc1ccc2oc(C[C@H]3O[C@@]4(CC[C@H]3C)O[C@H]([C@H](C)C(=O)c3ccc[nH]3)[C@H](C)C[C@H]4C)nc2c1C(=O)O [Calcimycin] | – | 42.70 | –
Clc1ccc(C(c2ccc(Cl)cc2)n2cc[n+](CC(OCc3ccc(Cl)cc3Cl)c3ccc(Cl)cc3Cl)c2)cc1.[Cl-] (centres unmarked) [Calmidazolium chloride, 1-[bis(4-Chlorophenyl)methyl]-3-[2-(2,4-dichlorophenyl)-2-(2,4-dichlorobenzyloxy)ethyl]-1H-imidazolium chloride] | 3.9 | – | –
COc1ccc2c(c[n+](C)c3c4cc5c(cc4ccc23)OCO5)c1OC [Chelerythrine chloride] | 9.9 | – | –
N.N.[Cl][Pt][Cl] [Cisplatin] | – | – | inhibition of CP70 sps cells [3, 6]: inhibited; inhibition of CP70 cells [5, 6]: inhibited
Cc1cc(N)c2ccccc2[n+]1CCCCCCCCCC[n+]1c(C)cc(N)c2ccccc21 [Dequalinium dichloride] | – | 54.68 | –

Molecule | Cancer cell survival (%) [1] [%] | Cancer cell survival (%) [4] [%] | also measured
C[C@@H]1O[C@@H](O[C@H]2C[C@@H](O)[C@]3(CO)[C@H]4[C@H](O)C[C@]5(C)[C@@H]([C@@H]6COC(=O)C6)CC[C@]5(O)[C@@H]4CC[C@]3(O)C2)[C@H](O)[C@H](O)[C@H]1O [Dihydroouabain] | 9.1 | 45.97 | –
c1ccc2c(c1)[I+]c1ccccc1-2 [Diphenyleneiodonium chloride] | – | 31.37 | –
CC[C@H]1CN2CCc3cc(OC)c(OC)cc3[C@@H]2C[C@@H]1C[C@H]1NCCc2cc(OC)c(OC)cc21 [Emetine dihydrochloride hydrate] | 7.3 | 49.13 | –
COc1ccc(NC(=O)c2ccc(-c3ccc(-c4noc(C)n4)cc3C)cc2)cc1N1CCN(C)CC1.Cl.O [GR 127935 hydrochloride, N-[4-Methoxy-3-(4-methyl-1-piperazinyl)phenyl]-2′-methyl-4′-(5-methyl-1,2,4-oxadiazol-3-yl)-1,1′-biphenyl-4-carboxamide hydro chloride hydrate] | 2.8 | – | –
O=C1c2c(O)ccc(O)c2C(=O)c2c(NCCNCCO)ccc(NCCNCCO)c21 [Mitoxantrone] | 5.2 | – | –
C[C@@H]1O[C@@H](O[C@H]2C[C@@H](O)[C@]3(CO)[C@H]4[C@H](O)C[C@]5(C)[C@@H](C6=CC(=O)OC6)CC[C@]5(O)[C@@H]4CC[C@]3(O)C2)[C@H](O)[C@H](O)[C@H]1O [Ouabain] | 1.8 | 26.69 | –
COc1cc2nc(N3CCN(C(=O)c4ccco4)CC3)nc(N)c2cc1OC [Prazosin hydrochloride] | 1.1 | – | –
C=CC1=C(C)c2cc3[nH]c(cc4nc(cc5[nH]c(cc1n2)c(C)c5CCC(=O)O)C(CCC(=O)O)=C4C)c(C)c3C=C [Protoporphyrin IX disodium] | 1.8 | 34.75 | –
CCN(CC)CCCC(C)Nc1c2ccc(Cl)cc2nc2ccc(OC)cc12 (centres unmarked) [Quinacrine dihydrochloride] | 3.8 | – | –
CC1=C(/C=C/C(C)=C/C=C/C(C)=C/C(=O)Nc2ccc(O)cc2)C(C)(C)CCC1 [Retinoic acid p-hydroxyanilide] | 13 | – | –
CC(=O)c1c(O)c(C)c(O)c(Cc2c(O)c3c(c(C(=O)/C=C/c4ccccc4)c2O)OC(C)(C)C=C3)c1O [Rottlerin] | – | 38.89 | inhibition / cytotoxicity effect on CP70 sps (OVCA sps) cells [3]: significant inhibition effect; also recorded: toxic
COc1ccc2c(c1)/C(=C/c1cnc[nH]1)C(=O)N2 [SU 9516, 3-[1-(3H-Imidazol-4-yl)-meth-(Z)-ylidene]-5-methoxy-1,3-dihydro-indol-2-one] | 10.7 | – | –
C[n+]1cc2c3c(ccc2c2ccc4cc5c(cc4c21)OCO5)OCO3 [Sanguinarine chloride] | – | 20.37 | –
CCN(CC)C(=S)SSC(=S)N(CC)CC [Tetraethylthiuram disulfide] | 10.18 | – | –
CC1(C)CCC2=C(O1)c1ccccc1C(=O)C2=O [beta-Lapachone, 3,4-Dihydro-2,2-Dimethyl-2H-Naphtho[1,2-B] Pyran-5,6-Dione] | 1.67 | – | –
CC1CCCC=CC2CC(O)CC2C(O)C=CC(=O)O1 (centres unmarked) [γ-4-Dihydroxy-2-(6-hydroxy-1-heptenyl)-4-cyclopentanecrotonic acid λ-lactone] | 6.6 | 41.18 | –
Vinblastine sulfate salt | – | 64.6 | –
